Experimental findings from US10648917B2, “Luminescent compositions and applications thereof” (THE PENN STATE RESEARCH FOUNDATION, priority 2015, dated 2020) are described below.

The nature of one series: Fluorescence spectra, absorbance and quantum yield (spectrofluorometer, integration sphere). It counts as physicochemical. As to conditions: CFD dyes. The protocol:
Fluorescence spectra were recorded by a Horiba FluoroMax-4 spectrofluorometer. All polymer and small molecule samples were measured at a concentration of 2% w/w in 1,4-dioxane or DI water and a slit size of 1 nm by 1 nm unless otherwise specified. Quantum yields were also determined on the same spectrofluorometer by using a Quantum-φ integration sphere at the same concentration and slit size with the blank solvent as the reference. ^1H-NMR, ^13C-NMR were performed on a JNM ECS 300 spectrometer using DMSO-d6 or D2O as solvents. Attenuated total reflection Fourier transform infrared (ATR-FTIR) spectra were collected with a Bruker V70 spectrometer using BPLP films. A Shimadzu HPLC-MS system with a Phenomenex Kinetex 2.6u XB-C18 100 mm×2.9 mm column, a SPD M20A PDA detector and a RF-20AXS fluorescence detector (Ex. 360 nm and Em. 430 nm) was used to characterize the structures of fluorophores as well. The mobile phase was a gradient of DI water and acetonitrile with 0-6 min 2% acetonitrile, 6-12 min 2%-30% acetonitrile, and 12-15 min 2% acetonitrile. The flow rate was 0.15 ml/min. Electrospray ionization mass spectroscopy (ESI-MS) was performed with a positive voltage of 4.5 kV and negative mode voltage −4.0 kV and a CDL temperature of 200° C. The analysis of the degradation products of BPLPs were conducted by immersing BPLPs in 1M K2CO3 solution at 37° C. for 24 hours. After degradation, the solutions were neutralized by 1N HCl solution to pH 7 and characterized by HPLC-MS as described above.
Fluorescence spectra were recorded by a Horiba FluoroMax-4 spectrofluorometer. All samples were measured at a concentration corresponding to an optical density of 0.1 in water and a slit size of 1 nm by 1 nm unless specified. Quantum yields were also determined on same spectrofluorometer by using a Quantum-φ integration sphere at samples' maximum excitation wavelength and at an increment of 0.3 nm. Photostability studies were done by continuously exciting samples at their maximum excitation wavelength and monitoring at the maximum emission wavelength.
Fluorescence spectra were recorded on a Horiba FluoroMax-4 spectrofluorometer (Horiba Scientific, Edison N.J.). All polymer and samples were characterized at a concentration of 2 wt % in 1,4-dioxane and a slit size of 1 nm by 1 nm unless otherwise specified. The fluorescence properties of small molecule dyes were also measure in 2 wt % DI water solutions at same conditions as polymer solutions. BPLPs were also degraded in 1M K2CO3 solution at 37° C. for 24 hours and then neutralized with 1N HCl solution to pH7. The resulting degradation solutions were subject to further PL characterizations. Quantum yields were also determined on the same spectrofluorometer by using a Quantum-φ integration sphere (Horiba Scientific, Edison N.J.) at the same concentration and slit size with the blank solvent as the reference. Photostability of small molecules and polymers were determined by monitoring the emission intensity decay at their max. Excitation and emission wavelengths over 3 hours of continuous lumination in the spectrofluorometer.
Absorbance Spectra were recorded on Tecan Infinite M200 Pro UV-vis spectroscopy, and fluorescence spectra were recorded on Horiba FluoroMax-4 fluorospectroscopy at concentrations below 0.1 O.D. unless otherwise indicated. Quantum Yields were measured on the Quantum φ Integrating Sphere accessory to the FluoroMax-4, while lifetime measurements were determined through the Time-Correlation Single Photon Counting (TCSPC) accessory to the FluroMax-4. TCSPC was utilized in conjunction with NanoLED pulsed diode light source with peak excitation wavelength at 352 nm and at 10,000 counts peak preset. Emission was collected at the fluorescence λmax, unless otherwise indicated. For all pH-dependence experiments, sample pH was adjusted with sulfuric acid or sodium hydroxide. For all chloride-dependent quenching experiments, magnesium chloride hexahydrate (Sigma Aldrich) was used.
In the case of `NCCN1C(=O)C=C(C(=O)O)CC1=O` [CA-EDA], the “Shifting (emission shifting with excitation wavelength)” value is recorded as “Yes”.
Still for that read-out and setting: next, `O=C(O)CN1C(=O)C=C(C(=O)O)CC1=O` [CA-Gly]: “Yes”.

The same series, now with this note: Table III.
Take `CC(C)CC(C(=O)O)N1C(=O)C=C(C(=O)O)CC1=O` (centres unmarked) [CA-Leucine]: the “Φ (quantum yield)” value is 8.8%, the “λem (maximum emission wavelength)” value is on record as 423 nm, the “λex (maximum excitation wavelength)” value is listed as 359 nm and the “ϵ (extinction coefficiency)” value is 6.2 M⁻¹ cm⁻¹.
For `NCCN1C(=O)C=C(C(=O)O)CC1=O` [CA-EDA], in that order: 9.2%, 440 nm, 377 nm and 828.3 M⁻¹ cm⁻¹.
For `NC(CSSCC(C(=O)O)N1C(=O)C=C(C(=O)O)CC1=O)C(=O)O` (centres unmarked) [CA-Cystine], in that order: 15%, 430 nm, 367 nm and 11.6 M⁻¹ cm⁻¹.
Take `CCCCCCCN1C(=O)C=C(C(=O)O)CC1=O` [CA-Heptylamine]: the “Φ (quantum yield)” value was found to be 13.5%, the “λem (maximum emission wavelength)” value is given as 424 nm, the “λex (maximum excitation wavelength)” value came out at 356 nm and the “ϵ (extinction coefficiency)” value is 4.7 M⁻¹ cm⁻¹.
For `O=C(O)C1CC(=O)N(C(CS)C(=O)O)C(=O)C1` (centres unmarked) [TCA-Cysteine], in that order: 54.2%, 431 nm, 366 nm and 11.6 M⁻¹ cm⁻¹.
For `O=C(O)C1=CC(=O)N(C(Cc2ccccc2)C(=O)O)C(=O)C1` (centres unmarked) [CA-Phenylalanine], in that order: 12.7%, 423 nm, 358 nm and 7.8 M⁻¹ cm⁻¹.
For `NCCCCCCN1C(=O)C=C(C(=O)O)CC1=O` [CA-Hexamethylenediamine], in that order: 11.5%, 426 nm, 357 nm and 9.4 M⁻¹ cm⁻¹.
Take `Nc1ccc(N2C(=O)C=C(C(=O)O)CC2=O)cc1` [CA-Phenylenediamine]: the “Φ (quantum yield)” value is reported as 4.5%, the “λem (maximum emission wavelength)” value is 433 nm, the “λex (maximum excitation wavelength)” value worked out at 360 nm and the “ϵ (extinction coefficiency)” value was 12.1 M⁻¹ cm⁻¹.
For `O=C(O)c1cc2n(c(=O)c1)C(C(=O)O)CCS2` (centres unmarked) [CA-Homocysteine], in that order: 70.8%, 445 nm, 375 nm and 109.2 M⁻¹ cm⁻¹.
For `CC(CC(=O)O)N1C(=O)C=C(C(=O)O)CC1=O` (centres unmarked) [CA-3-Aminobutanoic Acid], the “Φ (quantum yield)” value is recorded as 8.8%, the “λem (maximum emission wavelength)” value came out at 430 nm, the “λex (maximum excitation wavelength)” value was 356 nm and the “ϵ (extinction coefficiency)” value amounted to 6.3 M⁻¹ cm⁻¹.
As for `O=C(O)C1=CC(=O)N(C(CO)C(=O)O)C(=O)C1` (centres unmarked) [CA-Serine], the “Φ (quantum yield)” value stood at 4.2%, the “λem (maximum emission wavelength)” value turned out to be 440 nm, the “λex (maximum excitation wavelength)” value amounted to 369 nm and the “ϵ (extinction coefficiency)” value was 437.9 M⁻¹ cm⁻¹.
As for `O=C(O)C1=CC(=O)N(CCO)C(=O)C1` [CA-ethanolamine], the “Φ (quantum yield)” value turned out to be 42.1%, the “λem (maximum emission wavelength)” value is recorded as 419 nm, the “λex (maximum excitation wavelength)” value is listed as 368 nm and the “ϵ (extinction coefficiency)” value stood at 34.6 M⁻¹ cm⁻¹.
For `CC(C)C(C(=O)O)N1C(=O)C=C(C(=O)O)CC1=O` (centres unmarked) [CA-Valine], in that order: 17.5%, 428 nm, 361 nm and 5.3 M⁻¹ cm⁻¹.
Take `NCCCCC(C(=O)O)N1C(=O)C=C(C(=O)O)CC1=O` (centres unmarked) [CA-Lysine]: the “Φ (quantum yield)” value worked out at 8.6%, the “λem (maximum emission wavelength)” value is reported as 431 nm, the “λex (maximum excitation wavelength)” value is listed as 359 nm and the “ϵ (extinction coefficiency)” value was 11.4 M⁻¹ cm⁻¹.
With `O=C(O)CCC(C(=O)O)N1C(=O)C=C(C(=O)O)CC1=O` (centres unmarked) [CA-Glutamic Acid], the “Φ (quantum yield)” value came out at 9.1%, the “λem (maximum emission wavelength)” value was found to be 423 nm, the “λex (maximum excitation wavelength)” value stood at 358 nm and the “ϵ (extinction coefficiency)” value came out at 5.1 M⁻¹ cm⁻¹.
For `CC1(C)Sc2cc(C(=O)O)cc(=O)n2C1C(=O)O` (centres unmarked) [CA-Penicillamine], in that order: 80.6%, 432 nm, 369 nm and 3180 M⁻¹ cm⁻¹.
For `CC(C(=O)O)N1C(=O)CC(C(=O)O)CC1=O` (centres unmarked) [TCA-Alanine], in that order: 0.2%, 423 nm, 355 nm and 6.1 M⁻¹ cm⁻¹.
For `O=C(O)CC(C(=O)O)N1C(=O)C=C(C(=O)O)CC1=O` (centres unmarked) [CA-Aspartic Acid], in that order: 19.7%, 427 nm, 356 nm and 6.8 M⁻¹ cm⁻¹.
Turning to `CSCCC(C(=O)O)N1C(=O)C=C(C(=O)O)CC1=O` (centres unmarked) [CA-Methionine], the “Φ (quantum yield)” value came out at 10.5%, the “λem (maximum emission wavelength)” value is given as 424 nm, the “λex (maximum excitation wavelength)” value came out at 362 nm and the “ϵ (extinction coefficiency)” value turned out to be 5.3 M⁻¹ cm⁻¹.
For `CCC(C)C(C(=O)O)N1C(=O)C=C(C(=O)O)CC1=O` (centres unmarked) [CA-Isoleucine], the “Φ (quantum yield)” value is given as 17.2%, the “λem (maximum emission wavelength)” value was found to be 430 nm, the “λex (maximum excitation wavelength)” value is reported as 357 nm and the “ϵ (extinction coefficiency)” value was determined as 5.6 M⁻¹ cm⁻¹.
With `O=C(O)CN1C(=O)C=C(C(=O)O)CC1=O` [CA-Gly], the “Φ (quantum yield)” value is 39.0%, the “λem (maximum emission wavelength)” value came to 434 nm, the “λex (maximum excitation wavelength)” value was determined as 357 nm and the “ϵ (extinction coefficiency)” value was 12 M⁻¹ cm⁻¹.
Take `N=C(N)NCCCC(C(=O)O)N1C(=O)C=C(C(=O)O)CC1=O` (centres unmarked) [CA-Arginine]: the “Φ (quantum yield)” value came out at 15.5%, the “λem (maximum emission wavelength)” value is given as 451 nm, the “λex (maximum excitation wavelength)” value is given as 382 nm and the “ϵ (extinction coefficiency)” value came out at 11.6 M⁻¹ cm⁻¹.
Consider `O=C(O)c1cc(=O)n2c(c1)sc1ccccc12` [CA-2-Aminothiolphenol], for which the “Φ (quantum yield)” value was determined as 98.5%, the “λem (maximum emission wavelength)” value was found to be 439 nm, the “λex (maximum excitation wavelength)” value is reported as 396 nm and the “ϵ (extinction coefficiency)” value was 877.8 M⁻¹ cm⁻¹.
On to `NC(=O)CC(C(=O)O)N1C(=O)C=C(C(=O)O)CC1=O` (centres unmarked) [CA-Asparagine], for which the “Φ (quantum yield)” value came to 23.8%, the “λem (maximum emission wavelength)” value was found to be 440 nm, the “λex (maximum excitation wavelength)” value is given as 378 nm and the “ϵ (extinction coefficiency)” value turned out to be 35.5 M⁻¹ cm⁻¹.

The same series, now with this note: representative CFDs, Table I.
In the case of `NCCN1C(=O)C=C(C(=O)O)CC1=O` [CA-EDA], the “Max. Em. Wavelength” value stood at 440 nm, the “Max. Ex. Wavelength” value is on record as 377 nm and the “Quantum Yield” value was 9.2%.
On to `O=C(O)CN1C(=O)C=C(C(=O)O)CC1=O` [CA-Gly], for which the “Max. Em. Wavelength” value is listed as 434 nm, the “Max. Ex. Wavelength” value is recorded as 357 nm and the “Quantum Yield” value is listed as 39.0%.
